From patent US20160235069A1, “N-ACRYLIMINO HETEROCYCLIC COMPOUNDS” (BASF SE, priority 2013, published 2016)
Where two headings read alike, the source gives them in different places.

Tests used:
Assay type in all cases: in vivo
Plutella xylostella = assay: Diamond back moth (Plutella xylostella), dipped cabbage leaves; conditions: 3rd instar larvae on dipped cabbage leaves, 72 hours after treatment, read-out: mortality in comparison with untreated controls
Experimental: The active compound is dissolved at the desired concentration in a mixture of 1:1 (vol:vol) distilled water: acetone. Surfactant (Kinetic HV) is added at a rate of 0.01% (vol/vol). The test solution is prepared at the day of use.
Leaves of cabbage were dipped in test solution and air-dried. Treated leaves were placed in petri dishes lined with moist filter paper and inoculated with ten 3rd instar larvae. Mortality was recorded 72 hours after treatment. Feeding damages were also recorded using a scale of 0-100%.

Myzus persicae = assay: Green peach aphid (Myzus persicae), systemic, artificial diet in 96-well plates; conditions: 72 h, read-out: mortality in comparison with untreated controls
From the text: General conditions: If not otherwise specified, most test solutions are to be prepared as follows: The active compound is to be dissolved at the desired concentration in a mixture of 1:1 (vol:vol) distilled water:acteon. Further, the test solutions are to be prepared at the day of use (and, if not otherwise specified, in general at concentrations wt/vol).
For evaluating control of green peach aphid (Myzus persicae) through systemic means, the test unit consists of 96-well-microtiter plates containing liquid artificial diet under an artificial membrane.
The compounds are formulated using a solution containing 75% v/v water and 25% v/v DMSO. Different concentrations of formulated compounds are pipetted into the aphid diet, using a custom built pipetter, at two replications.
After application, 5-8 adult aphids are placed on the artificial membrane inside the microtiter plate wells. The aphids are then allowed to suck on the treated aphid diet and incubated at about 23+1° C. and about 50+5% relative humidity for 3 days. Aphid mortality and fecundity is then visually assessed.

Nephotettix virescens = assay: Rice green leafhopper (Nephotettix virescens), sprayed rice seedlings; conditions: read-out: mortality in comparison with untreated controls
Experimental: (§1) Rice seedlings are cleaned and washed 24 hours before spraying. The active compounds are formulated in 50:50 acetone:water (vol:vol), and 0.1% vol/vol surfactant (EL 620) is added. Potted rice seedlings are sprayed with 5 ml test solution, air dried, placed in cages and inoculated with 10 adults. Treated rice plants are kept at about 28-29° C. and relative humidity of about 50-60%. Percent mortality is recorded after 72 hours.

Megoura viciae = assay: Vetch aphid (Megoura viciae), contact or systemic, broad bean leaf disks; conditions: foliar, 120 h, read-out: mortality in comparison with untreated controls
Experimental: For evaluating control of vetch aphid (Megoura viciae) through contact or systemic means the test unit consisted of 24-well-microtiter plates containing broad bean leaf disks.
The compounds were formulated using a solution containing 75% v/v water and 25% v/v DMSO. Different concentrations of formulated compounds were sprayed onto the leaf disks at 2.5 μl, using a custom built micro atomizer, at two replications.
After application, the leaf disks were air-dried and 5-8 adult aphids were placed on the leaf disks inside the microtiter plate wells. The aphids were then allowed to suck on the treated leaf disks and were incubated at about 23±1° C. and about 50±5% relative humidity for 5 days. Aphid mortality and fecundity was then visually assessed.

Aphis craccivora = assay: Cowpea aphid (Aphis craccivora), sprayed potted cowpea plants; conditions: 72 h, read-out: mortality in comparison with untreated controls
Experimental: The active compound is dissolved at the desired concentration in a mixture of 1:1 (vol:vol) distilled water: acetone. Surfactant (Alkamuls® EL 620) is added at a rate of 0.1% (vol/vol). The test solution is prepared at the day of use.
Potted cowpea plants are colonized with approximately 50-100 aphids of various stages by manually transferring a leaf tissue cut from infested plant 24 hours before application. Plants are sprayed after the pest population has been recorded. Treated plants are maintained on light carts at about 28° C. Percent mortality is assessed after 72 hours.

Anthonomus grandis = assay: Boll weevil (Anthonomus grandis), insect diet with eggs in 96-well plates; conditions: 120 h, read-out: mortality in comparison with untreated controls
Experimental: For evaluating control of boll weevil (Anthonomus grandis) the test unit consisted of 96-well-microtiter plates containing an insect diet and 5-10 A. grandis eggs.
The compounds were formulated using a solution containing 75% v/v water and 25% v/v DMSO. Different concentrations of formulated compounds were sprayed onto the insect diet at 5 μl, using a custom built micro atomizer, at two replications.
After application, microtiter plates were incubated at about 25±1° C. and about 75±5% relative humidity for 5 days. Egg and larval mortality was then visually assessed.

Dichromothrips corbetti = assay: Orchid thrips (Dichromothrips corbetti), floral-immersion technique; conditions: 72 h, read-out: mortality in comparison with untreated controls
Experimental: Dichromothrips corbetti adults used for bioassay are obtained from a colony maintained continuously under laboratory conditions. For testing purposes, the test compound is diluted in a 1:1 mixture of acetone:water (vol:vol), plus 0.01% vol/vol Alkamuls® EL 620 surfactant.
Thrips potency of each compound is evaluated by using a floral-immersion technique. Plastic petri dishes are used as test arenas. All petals of individual, intact orchid flowers are dipped into treatment solution and allowed to dry. Treated flowers are placed into individual petri dishes along with about 20 adult thrips. The petri dishes are then covered with lids. All test arenas are held under continuous light and a temperature of about 28° C. for duration of the assay. After 3 days, the numbers of live thrips are counted on each flower, and along inner walls of each petri dish. The percent mortality is recorded 72 hours after treatment.

Aphis gossypii = assay: Cotton aphid (Aphis gossypii), sprayed potted plants; conditions: 72 h, read-out: mortality in comparison with untreated controls
Nilaparvata lugens = assay: Rice brown plant hopper (Nilaparvata lugens), sprayed rice seedlings; conditions: 72 h, read-out: mortality in comparison with untreated controls
Experimental: as §1, with “compounds is” for “compounds are”, “acetone:water (vol:vol)” for “acetone:water (vol:vol),”, “620) was” for “620) is”

C=C(F)C(=O)/N=c1\ccccn1Cc1cnn(C)c1 [Compound E1.16]
≥ 75%: mortality at 500 ppm (Plutella xylostella) | mortality at 2500 ppm (Myzus persicae; 2500 ppm, adult aphids on treated diet, 3 days) | mortality at 500 ppm (Nephotettix virescens; 500 ppm, adults on sprayed rice seedlings, after 72 hours) | mortality at 2500 ppm (Megoura viciae; 2500 ppm, adult aphids on sprayed leaf disks, 5 days)

CC(C)(C)C/C=C(\C#N)C(=O)/N=c1\ccccn1Cc1ccc(Cl)nc1 [Compound E1.28]
≥ 75%: mortality at 500 ppm (Aphis craccivora) | mortality at 2500 ppm (Myzus persicae) | mortality at 2500 ppm (Anthonomus grandis) | mortality at 2500 ppm (Megoura viciae)

C=C(F)C(=O)/N=c1\ccccn1Cc1ccc(Cl)nc1 [Compound E1.3]
≥ 75%: mortality at 500 ppm (Aphis craccivora) | mortality at 2500 ppm (Myzus persicae) | mortality at 500 ppm (Dichromothrips corbetti) | mortality at 500 ppm (Aphis gossypii) | mortality at 500 ppm (Nilaparvata lugens) | mortality at 500 ppm (Nephotettix virescens; 72 h) | mortality at 2500 ppm (Megoura viciae)
